Reference: publication PMC2655646, “A Conserved Mechanism for Control of Human and Mouse Embryonic Stem Cell Pluripotency and Differentiation by Shp2 Tyrosine Phosphatase” (PLoS ONE, 2009)

Assays:
[1] = target: T1, Shp1 (Mus musculus, UniProt P29351); assay: phosphatase inhibition assay with purified GST-PTP domain; format: biochemical
T1 construct: gene Ptpn6; GST-tagged PTP domain
T1 sequence (P29351 244-515 limits assumed): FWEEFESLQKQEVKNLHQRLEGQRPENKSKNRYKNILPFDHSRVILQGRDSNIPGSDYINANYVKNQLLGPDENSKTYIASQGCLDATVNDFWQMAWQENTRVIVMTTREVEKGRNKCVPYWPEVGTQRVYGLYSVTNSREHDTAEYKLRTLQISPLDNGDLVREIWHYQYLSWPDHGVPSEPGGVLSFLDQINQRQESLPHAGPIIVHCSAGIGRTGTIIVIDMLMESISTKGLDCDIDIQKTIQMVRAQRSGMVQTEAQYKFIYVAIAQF

[2] = target: T2, Shp2 (Mus musculus, UniProt P35235); assay: pNPP phosphatase assay with purified GST-PTP domain, absorbance at […] nm; Ki also determined ([…]); format: biochemical
T2 construct: gene Ptpn11; GST-tagged PTP domain
T2 sequence (P35235 247-521 limits assumed): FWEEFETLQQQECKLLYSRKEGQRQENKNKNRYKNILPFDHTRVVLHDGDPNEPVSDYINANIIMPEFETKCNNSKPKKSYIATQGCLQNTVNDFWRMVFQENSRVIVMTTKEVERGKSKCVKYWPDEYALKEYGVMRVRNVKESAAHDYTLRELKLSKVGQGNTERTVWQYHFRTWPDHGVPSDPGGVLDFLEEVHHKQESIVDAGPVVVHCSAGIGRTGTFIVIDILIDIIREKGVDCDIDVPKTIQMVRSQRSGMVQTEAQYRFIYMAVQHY

IC50 [1]: 2300 nM
IC50 [2]: 2100 nM
Structure (SMILES): O=C(O)c1cc(O)c(=O)c2c(O)c(O)ccc2c1 [DCA, 7-deshydroxypyrogallin-4-carboxylic acid]
